# From the supplement of paper PMC8612539
# Tested on: Pasteurella multocida
# Assay: minimum inhibitory concentration (MIC)
# Protocol: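 Broth microdilution MIC (Sensititre BOPO7F bovine plate, CLSI methods) of 19 antimicrobials against field isolates of P. multocida, M. haemolytica, H. somni (deep nasopharyngeal swabs) and E. coli, Enterococcus spp. (rectal swabs) from weaned dairy heifers. Incubation 16-24 h at 35 C. MIC is the lowest concentration preventing visible growth. Values with <= or > lie at the tested range limits. Trimethoprim-sulfamethoxazole is given as the trimethoprim component of a 1:19 mixture.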
smiles,measurement,setting,value
CNC(C)C1CCC(N)C(OC2C(N)CC(N)C(OC3OCC(C)(O)C(NC)C3O)C2O)O1 (configuration not stated) [Gentamicin],minimum inhibitory concentration,isolate (source animal id): 10,4 µg/mL
same,minimum inhibitory concentration,isolate (source animal id): 11,2 µg/mL
same,minimum inhibitory concentration,isolate (source animal id): 12,4 µg/mL
same,minimum inhibitory concentration,isolate (source animal id): 19,4 µg/mL
same,minimum inhibitory concentration,isolate (source animal id): 23,4 µg/mL
same,minimum inhibitory concentration,isolate (source animal id): 26,4 µg/mL
same,minimum inhibitory concentration,isolate (source animal id): 98,4 µg/mL
same,minimum inhibitory concentration,isolate (source animal id): 104,2 µg/mL
same,minimum inhibitory concentration,isolate (source animal id): 115,4 µg/mL
same,minimum inhibitory concentration,isolate (source animal id): 117,4 µg/mL
same,minimum inhibitory concentration,isolate (source animal id): 118,4 µg/mL
same,minimum inhibitory concentration,isolate (source animal id): 121,4 µg/mL
same,minimum inhibitory concentration,isolate (source animal id): 124,4 µg/mL
same,minimum inhibitory concentration,isolate (source animal id): 125,4 µg/mL
same,minimum inhibitory concentration,isolate (source animal id): 128,4 µg/mL
same,minimum inhibitory concentration,isolate (source animal id): 131,16 µg/mL
same,minimum inhibitory concentration,isolate (source animal id): 135,8 µg/mL
same,minimum inhibitory concentration,isolate (source animal id): 136,4 µg/mL
same,minimum inhibitory concentration,isolate (source animal id): 140,4 µg/mL
same,minimum inhibitory concentration,isolate (source animal id): 144,4 µg/mL
same,minimum inhibitory concentration,isolate (source animal id): 146,4 µg/mL
same,minimum inhibitory concentration,isolate (source animal id): 150,4 µg/mL
same,minimum inhibitory concentration,isolate (source animal id): 151,4 µg/mL
same,minimum inhibitory concentration,isolate (source animal id): 153,4 µg/mL
same,minimum inhibitory concentration,isolate (source animal id): 155,4 µg/mL
same,minimum inhibitory concentration,isolate (source animal id): 157,4 µg/mL
same,minimum inhibitory concentration,isolate (source animal id): 160,4 µg/mL
same,minimum inhibitory concentration,isolate (source animal id): 164,4 µg/mL
same,minimum inhibitory concentration,isolate (source animal id): 165,4 µg/mL
same,minimum inhibitory concentration,isolate (source animal id): 167,4 µg/mL
same,minimum inhibitory concentration,isolate (source animal id): 168,4 µg/mL
same,minimum inhibitory concentration,isolate (source animal id): 169,4 µg/mL
same,minimum inhibitory concentration,isolate (source animal id): 170,4 µg/mL
same,minimum inhibitory concentration,isolate (source animal id): 171,4 µg/mL
same,minimum inhibitory concentration,isolate (source animal id): 172,4 µg/mL
same,minimum inhibitory concentration,isolate (source animal id): 173,4 µg/mL
same,minimum inhibitory concentration,isolate (source animal id): 174,4 µg/mL
same,minimum inhibitory concentration,isolate (source animal id): 175,4 µg/mL
same,minimum inhibitory concentration,isolate (source animal id): 176,4 µg/mL
same,minimum inhibitory concentration,isolate (source animal id): 177,4 µg/mL
same,minimum inhibitory concentration,isolate (source animal id): 178,4 µg/mL
same,minimum inhibitory concentration,isolate (source animal id): 179,4 µg/mL
same,minimum inhibitory concentration,isolate (source animal id): 182,4 µg/mL
same,minimum inhibitory concentration,isolate (source animal id): 192,4 µg/mL
same,minimum inhibitory concentration,isolate (source animal id): 193,4 µg/mL
same,minimum inhibitory concentration,isolate (source animal id): 195,4 µg/mL
same,minimum inhibitory concentration,isolate (source animal id): 196,4 µg/mL
same,minimum inhibitory concentration,isolate (source animal id): 197,4 µg/mL
same,minimum inhibitory concentration,isolate (source animal id): 198,4 µg/mL
same,minimum inhibitory concentration,isolate (source animal id): 199,4 µg/mL
same,minimum inhibitory concentration,isolate (source animal id): 200,4 µg/mL
same,minimum inhibitory concentration,isolate (source animal id): 201,4 µg/mL
same,minimum inhibitory concentration,isolate (source animal id): 203,4 µg/mL
same,minimum inhibitory concentration,isolate (source animal id): 204,4 µg/mL
same,minimum inhibitory concentration,isolate (source animal id): 205,4 µg/mL
same,minimum inhibitory concentration,isolate (source animal id): 206,4 µg/mL
same,minimum inhibitory concentration,isolate (source animal id): 207,4 µg/mL
same,minimum inhibitory concentration,isolate (source animal id): 208,4 µg/mL
same,minimum inhibitory concentration,isolate (source animal id): 209,4 µg/mL
same,minimum inhibitory concentration,isolate (source animal id): 210,4 µg/mL
same,minimum inhibitory concentration,isolate (source animal id): 213,4 µg/mL
same,minimum inhibitory concentration,isolate (source animal id): 216,4 µg/mL
same,minimum inhibitory concentration,isolate (source animal id): 223,4 µg/mL
same,minimum inhibitory concentration,isolate (source animal id): 227,2 µg/mL
same,minimum inhibitory concentration,isolate (source animal id): 229,2 µg/mL
same,minimum inhibitory concentration,isolate (source animal id): 233,4 µg/mL
same,minimum inhibitory concentration,isolate (source animal id): 234,4 µg/mL
same,minimum inhibitory concentration,isolate (source animal id): 237,4 µg/mL
same,minimum inhibitory concentration,isolate (source animal id): 241,4 µg/mL
same,minimum inhibitory concentration,isolate (source animal id): 245,4 µg/mL
same,minimum inhibitory concentration,isolate (source animal id): 247,4 µg/mL
same,minimum inhibitory concentration,isolate (source animal id): 250,2 µg/mL
same,minimum inhibitory concentration,isolate (source animal id): 254,4 µg/mL
same,minimum inhibitory concentration,isolate (source animal id): 255,4 µg/mL
same,minimum inhibitory concentration,isolate (source animal id): 258,4 µg/mL
same,minimum inhibitory concentration,isolate (source animal id): 261,2 µg/mL
same,minimum inhibitory concentration,isolate (source animal id): 262,4 µg/mL
